What was measured:
[1] = system: reconstructed human epidermis (RHE)-models; experiment: Cytokine release in reconstituted human epidermis model after TNFα; format: cell-based; conditions: 0.75 ng/ml TNFα, extract 10 μg/ml in medium, 24 h and 48 h
Method: The bioactivity of the extract of Chromochloris zofingiensis (2022C) was tested in human epidermis equivalents by measuring cytokine secretion in response to TNFα treatment.
The extract was tested in a physiological relevant set-up represented by reconstructed human epidermis (RHE)-models (FIG. 2), (W. Pixelproduction, epiCS—CellSystems GmbH. [Online]. Available: https://cellsystems.de/cells-and-media/c/epics (accessed: Oct. 2 2020)), purchased from Cell Systems. epiCS RHE models are validated for the classification of compounds according to the OECD test guideline 431. […]
The secretion of relevant pro-inflammatory cytokines of RHE-models (from Cell Systems Biotechnology), were quantified after induction with 0.75 ng/ml TNFα and treatment with DMSO, WFA or the extract of Chromochloris zofingiensis in a concentration of 10 μg/ml in DMSO.
After culturing the keratinocyte cell layer in cell culture inserts (0.6 cm^2) under submerged conditions, the tissues were lifted to the air-liquid interphase to induce differentiation, epithelial stratification and cornification. […] The cytokine release was evaluated 24 h and 48 h after the TNFα treatment. The secretion of the cytokines IL-1ra, RANTES, IL-1α, GM-CSF, TSLP, IP-10, IL-18, IL-6, IL-8, IL-10, MCP-1, IL-1β, TNFα and INF-β was measured. […]

IKKβ Kinase = biological target: T1, IKKβ Kinase (Homo sapiens, UniProt O14920); experiment: In vitro immunoprecipitation IKKβ kinase assay with IκBα as substrate (autoradiography); format: biochemical; conditions: 1.6, 2.8 and 6% vs DMSO control; FIG. 9
T1 construct: made in house; host or cells: HEK 293T cells (transient transfection, anti-HA immunoprecipitation)
T1 sequence (O14920 1-756): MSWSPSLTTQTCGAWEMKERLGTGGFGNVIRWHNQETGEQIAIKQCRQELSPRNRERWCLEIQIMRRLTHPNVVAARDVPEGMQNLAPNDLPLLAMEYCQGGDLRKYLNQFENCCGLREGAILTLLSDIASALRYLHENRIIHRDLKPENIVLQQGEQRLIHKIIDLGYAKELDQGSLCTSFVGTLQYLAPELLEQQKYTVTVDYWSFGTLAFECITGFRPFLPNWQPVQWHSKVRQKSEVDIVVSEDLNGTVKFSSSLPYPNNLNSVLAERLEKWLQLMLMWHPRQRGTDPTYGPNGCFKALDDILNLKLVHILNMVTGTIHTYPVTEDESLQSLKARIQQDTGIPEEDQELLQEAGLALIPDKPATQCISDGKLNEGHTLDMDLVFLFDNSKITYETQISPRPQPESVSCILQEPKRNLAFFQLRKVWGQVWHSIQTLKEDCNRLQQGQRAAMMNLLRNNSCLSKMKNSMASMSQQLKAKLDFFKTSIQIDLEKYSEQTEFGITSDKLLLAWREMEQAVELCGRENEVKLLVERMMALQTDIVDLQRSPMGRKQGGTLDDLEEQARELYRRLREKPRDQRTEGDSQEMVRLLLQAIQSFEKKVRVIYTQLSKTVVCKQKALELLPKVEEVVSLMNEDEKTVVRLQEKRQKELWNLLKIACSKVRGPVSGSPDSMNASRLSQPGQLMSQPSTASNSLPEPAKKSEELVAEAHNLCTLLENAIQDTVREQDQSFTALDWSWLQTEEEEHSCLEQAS
Method: The IKK complex subunit IKKβ is responsible for the phosphorylation of IκBα and it's targeting for degradation upon TNFα induction. Therefore, it has been investigated whether the extracts inhibit IKKβ. […] The kinase assay was based on quantifying the activity of the kinase IKKβ via autoradiography.
Specifically, HEK 293T cells were transfected with the HA-IKKβ construct. Cells were washed with ice-cold phosphate-buffered saline (PBS) and extracted with lysis buffer containing 50 mM HEPES (pH 7.5), 150 mM NaCl, 1% (vol/vol) Nonidet P-40, 2 mM EDTA, 50 mM sodium fluoride, 10 mM sodium pyrophosphate, 1 mM sodium orthovanadate, 50 μg of leupeptin (Boehringer Mannheim)/ml, 0.5% aprotinin (Sigma), 1 mM phenylmethylsulphonyl fluoride (Sigma), and 3 mM benzamidine (Sigma). 300 ng of total protein were immunoprecipitated with 2 μg of anti-HA antibodies and immune complexes were collected using protein A-Sepharose beads (Amersham Pharmacia Biotech). Immune complexes were washed three times with lysis buffer followed by a single wash with high salt buffer (500 mM NaCl) and kinase assay buffer (50 mM HEPES [pH 7.5], 10 mM MgCl2, 1 mM dithiothreitol, 10 mM β-glycerophosphate). […] Samples were subjected to 10% SDS-PAGE, and the amount of ^32P incorporated into the IKKβ and IκBα proteins was assessed by autoradiography (FIG. 4). […]

| direct inhibition of the IKKβ kinase (IKKβ Kinase) | Compound | release of IL-10, MCP-1, IP-10 and RANTES [1] |
| --- | --- | --- |
|  | CC1=C(CO)C(=O)O[C@@H]([C@@H](C)[C@H]2CC[C@H]3[C@@H]4C[C@H]5O[C@]56[C@@H](O)C=CC(=O)[C@]6(C)[C@H]4CC[C@]23C)C1 [WFA, Withaferin A] | substantial decrease |
| no inhibition | diacylglyceryl-N,N,N-trimethylhomoserine [DGTS] |  |
